Where two headings read alike, the source gives them in different places.
Assays:
CDK5/CDK5R1 = CDK5/CDK5R1 (Homo sapiens, UniProt Q00535); experiment: NanoBRET live-cell target engagement, CDK5-NanoLuc/CDK5R1 in HEK-293; type: binding; conditions: 10µM, read-out: CDK5/CDK5R1 Inhibition at 10µM (%)
CDK12/Cyclin K = CDK12/Cyclin K (Homo sapiens, UniProt Q9NYV4); experiment: NanoBRET live-cell target engagement, CDK12-NanoLuc/Cyclin K in HEK-293; type: binding; conditions: 10µM, read-out: CDK12/K Inhibition at 10µM (%)
CDK11A/Cyclin L2 = target: T1, CDK11A/Cyclin L2 (Homo sapiens, UniProt Q9UQ88); experiment: NanoBRET live-cell target engagement, CDK11A-NanoLuc/Cyclin L2 in HEK-293; type: binding; conditions: 10µM, read-out: CDK11a/L2 Inhibition at 10µM (%)
T1 sequence (Q9UQ88 1-783): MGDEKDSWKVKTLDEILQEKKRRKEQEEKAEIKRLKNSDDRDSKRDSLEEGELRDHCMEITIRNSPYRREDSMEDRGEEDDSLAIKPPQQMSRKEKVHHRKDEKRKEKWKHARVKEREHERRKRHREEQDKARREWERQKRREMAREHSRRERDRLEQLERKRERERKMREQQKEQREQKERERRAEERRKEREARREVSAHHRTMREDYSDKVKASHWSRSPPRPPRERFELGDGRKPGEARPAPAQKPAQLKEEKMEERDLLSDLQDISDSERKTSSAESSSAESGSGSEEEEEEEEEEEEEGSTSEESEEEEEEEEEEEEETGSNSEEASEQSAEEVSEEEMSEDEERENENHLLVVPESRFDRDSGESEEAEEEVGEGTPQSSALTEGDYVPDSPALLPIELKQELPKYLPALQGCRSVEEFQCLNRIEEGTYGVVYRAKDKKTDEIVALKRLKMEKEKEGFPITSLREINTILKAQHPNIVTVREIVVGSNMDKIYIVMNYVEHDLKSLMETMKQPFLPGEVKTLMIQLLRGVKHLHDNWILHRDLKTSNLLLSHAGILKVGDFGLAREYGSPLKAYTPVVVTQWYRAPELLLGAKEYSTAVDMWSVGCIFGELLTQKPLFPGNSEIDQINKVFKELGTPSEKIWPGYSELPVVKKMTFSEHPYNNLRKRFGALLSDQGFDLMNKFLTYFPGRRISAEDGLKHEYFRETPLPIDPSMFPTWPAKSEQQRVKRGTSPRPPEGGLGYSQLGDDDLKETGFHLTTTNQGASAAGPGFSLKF

CDK13/Cyclin K = CDK13/Cyclin K (Homo sapiens, UniProt Q14004); experiment: NanoBRET live-cell target engagement, CDK13-NanoLuc/Cyclin K in HEK-293; type: binding; conditions: 10µM, read-out: CDK13/K Inhibition at 10µM (%)
CDK20/Cyclin H = CDK20/Cyclin H (Homo sapiens, UniProt Q8IZL9); experiment: NanoBRET live-cell target engagement, NanoLuc-CDK20/Cyclin H in HEK-293; type: binding; conditions: 10µM, read-out: CDK20/H Inhibition at 10µM (%)
CDK18/Cyclin Y = CDK18/Cyclin Y (Homo sapiens, UniProt Q07002); experiment: NanoBRET live-cell target engagement, CDK18-NanoLuc/Cyclin Y in HEK-293; type: binding; conditions: 10µM, read-out: CDK18/Y Inhibition at 10µM (%)
CDK2/Cyclin E1 = CDK2/Cyclin E1 (Homo sapiens, UniProt P24941); experiment: NanoBRET live-cell target engagement, CDK2-NanoLuc/Cyclin E1 in HEK-293; type: binding; conditions: 10µM, read-out: CDK2/E1 Inhibition at 10µM (%)
CDK11B/Cyclin L2 = CDK11B/Cyclin L2 (Homo sapiens, UniProt P21127); experiment: NanoBRET live-cell target engagement, CDK11B-NanoLuc/Cyclin L2 in HEK-293; type: binding; conditions: 10µM, read-out: CDK11b/L2 Inhibition at 10µM (%)
CDK4/Cyclin D1 = CDK4/Cyclin D1 (Homo sapiens, UniProt P11802); experiment: NanoBRET live-cell target engagement, NanoLuc-CDK4/Cyclin D1 in HEK-293; type: binding; conditions: 10µM, read-out: CDK4/D1 Inhibition at 10µM (%)
CDK10/Cyclin L2 = CDK10/Cyclin L2 (Homo sapiens, UniProt Q15131); experiment: NanoBRET live-cell target engagement, CDK10-NanoLuc/Cyclin L2 in HEK-293; conditions: read-out: CDK10/L2 Inhibition at 10µM (%), 10µM
CDK19/Cyclin C = CDK19/Cyclin C (Homo sapiens, UniProt Q9BWU1); experiment: NanoBRET live-cell target engagement, NanoLuc-CDK19/Cyclin C in HEK-293; conditions: read-out: CDK19/C Inhibition at 10µM (%), 10µM
CDK6/Cyclin D1 = CDK6/Cyclin D1 (Homo sapiens, UniProt Q00534); experiment: NanoBRET live-cell target engagement, NanoLuc-CDK6/Cyclin D1 in HEK-293; type: binding; conditions: 10µM, read-out: CDK6/D1 Inhibition at 10µM (%)
CDK1/Cyclin E1 = CDK1/Cyclin E1 (Homo sapiens, UniProt P06493); experiment: NanoBRET live-cell target engagement, CDK1-NanoLuc/Cyclin E1 in HEK-293; type: binding; conditions: 10µM, read-out: CDK1/E1 Inhibition at 10µM (%)
CDK17/Cyclin Y = CDK17/Cyclin Y (Homo sapiens, UniProt Q00537); experiment: NanoBRET live-cell target engagement, CDK17-NanoLuc/Cyclin Y in HEK-293; type: binding; conditions: 10µM, read-out: CDK17/Y Inhibition at 10µM (%)
CDK9/Cyclin K = CDK9/Cyclin K (Homo sapiens, UniProt P50750); experiment: NanoBRET live-cell target engagement, NanoLuc-CDK9/Cyclin K in HEK-293; type: binding; conditions: 10µM, read-out: CDK9/K Inhibition at 10µM (%)
CDK8/Cyclin C = CDK8/Cyclin C (Homo sapiens, UniProt P49336); experiment: NanoBRET live-cell target engagement, NanoLuc-CDK8/Cyclin C in HEK-293; type: binding; conditions: 10µM, read-out: CDK8/C Inhibition at 10µM (%)
CDK14/Cyclin Y = CDK14/Cyclin Y (Homo sapiens, UniProt O94921); experiment: NanoBRET live-cell target engagement, CDK14-NanoLuc/Cyclin Y in HEK-293; type: binding; conditions: 10µM, read-out: CDK14/Y Inhibition at 10µM (%)
CDK16/Cyclin Y = CDK16/Cyclin Y (Homo sapiens, UniProt Q00536); experiment: NanoBRET live-cell target engagement, CDK16-NanoLuc/Cyclin Y in HEK-293; type: binding; conditions: 10µM, read-out: CDK16/Y Inhibition at 10µM (%)
CDK15/Cyclin Y = CDK15/Cyclin Y (Homo sapiens, UniProt Q96Q40); experiment: NanoBRET live-cell target engagement, NanoLuc-CDK15/Cyclin Y in HEK-293; type: binding; conditions: 10µM, read-out: CDK15/Y Inhibition at 10µM (%)

Chain of CDK19/Cyclin C (Q9BWU1 whole entry): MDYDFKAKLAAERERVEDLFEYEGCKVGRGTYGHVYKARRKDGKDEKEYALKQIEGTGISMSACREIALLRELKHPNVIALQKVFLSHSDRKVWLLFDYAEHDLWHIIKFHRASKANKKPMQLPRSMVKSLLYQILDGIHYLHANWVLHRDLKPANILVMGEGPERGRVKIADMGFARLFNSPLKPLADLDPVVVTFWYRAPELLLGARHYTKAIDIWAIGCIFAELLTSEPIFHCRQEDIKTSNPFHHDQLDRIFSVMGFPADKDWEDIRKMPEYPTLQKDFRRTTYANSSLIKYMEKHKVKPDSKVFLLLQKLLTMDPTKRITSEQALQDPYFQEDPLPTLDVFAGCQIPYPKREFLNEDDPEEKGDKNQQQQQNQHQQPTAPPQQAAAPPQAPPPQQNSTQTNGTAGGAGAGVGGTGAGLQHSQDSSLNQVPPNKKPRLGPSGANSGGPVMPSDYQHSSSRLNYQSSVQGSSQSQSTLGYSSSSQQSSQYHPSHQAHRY
Chain of CDK19/Cyclin C (P24863 whole entry partner): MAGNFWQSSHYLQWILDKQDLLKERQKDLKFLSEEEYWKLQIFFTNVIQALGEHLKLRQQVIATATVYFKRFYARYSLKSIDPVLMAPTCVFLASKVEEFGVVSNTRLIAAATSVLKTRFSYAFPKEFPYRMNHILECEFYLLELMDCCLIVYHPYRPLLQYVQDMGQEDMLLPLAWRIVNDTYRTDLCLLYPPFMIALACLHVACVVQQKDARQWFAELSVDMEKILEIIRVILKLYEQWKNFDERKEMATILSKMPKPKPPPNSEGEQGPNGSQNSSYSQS
Chain of CDK17/Cyclin Y (Q00537 whole entry): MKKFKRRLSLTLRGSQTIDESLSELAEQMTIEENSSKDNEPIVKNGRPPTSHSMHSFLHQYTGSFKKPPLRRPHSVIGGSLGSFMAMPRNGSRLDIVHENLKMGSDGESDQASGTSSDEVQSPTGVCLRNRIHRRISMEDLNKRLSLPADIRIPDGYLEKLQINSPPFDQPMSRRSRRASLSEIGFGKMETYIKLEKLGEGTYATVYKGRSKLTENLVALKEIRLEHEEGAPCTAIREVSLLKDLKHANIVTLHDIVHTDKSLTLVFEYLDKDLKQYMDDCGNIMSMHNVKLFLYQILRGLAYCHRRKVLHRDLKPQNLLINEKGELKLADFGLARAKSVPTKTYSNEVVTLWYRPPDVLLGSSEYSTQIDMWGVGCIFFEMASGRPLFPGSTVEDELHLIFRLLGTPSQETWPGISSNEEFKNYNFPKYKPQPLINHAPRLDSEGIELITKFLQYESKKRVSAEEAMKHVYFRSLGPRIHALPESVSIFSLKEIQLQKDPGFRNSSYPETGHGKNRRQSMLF
Chain of CDK17/Cyclin Y (Q8ND76 whole entry partner): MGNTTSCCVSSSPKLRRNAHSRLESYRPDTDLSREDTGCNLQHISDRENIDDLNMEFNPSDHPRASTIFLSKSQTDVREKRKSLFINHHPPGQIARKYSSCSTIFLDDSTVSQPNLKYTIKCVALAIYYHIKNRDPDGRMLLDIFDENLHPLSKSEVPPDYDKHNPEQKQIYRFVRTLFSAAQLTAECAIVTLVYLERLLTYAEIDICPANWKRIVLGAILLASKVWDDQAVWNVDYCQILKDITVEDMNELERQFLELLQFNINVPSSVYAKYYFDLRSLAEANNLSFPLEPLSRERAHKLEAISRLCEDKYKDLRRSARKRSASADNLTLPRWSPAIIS
Chain of CDK13/Cyclin K (O75909 whole entry): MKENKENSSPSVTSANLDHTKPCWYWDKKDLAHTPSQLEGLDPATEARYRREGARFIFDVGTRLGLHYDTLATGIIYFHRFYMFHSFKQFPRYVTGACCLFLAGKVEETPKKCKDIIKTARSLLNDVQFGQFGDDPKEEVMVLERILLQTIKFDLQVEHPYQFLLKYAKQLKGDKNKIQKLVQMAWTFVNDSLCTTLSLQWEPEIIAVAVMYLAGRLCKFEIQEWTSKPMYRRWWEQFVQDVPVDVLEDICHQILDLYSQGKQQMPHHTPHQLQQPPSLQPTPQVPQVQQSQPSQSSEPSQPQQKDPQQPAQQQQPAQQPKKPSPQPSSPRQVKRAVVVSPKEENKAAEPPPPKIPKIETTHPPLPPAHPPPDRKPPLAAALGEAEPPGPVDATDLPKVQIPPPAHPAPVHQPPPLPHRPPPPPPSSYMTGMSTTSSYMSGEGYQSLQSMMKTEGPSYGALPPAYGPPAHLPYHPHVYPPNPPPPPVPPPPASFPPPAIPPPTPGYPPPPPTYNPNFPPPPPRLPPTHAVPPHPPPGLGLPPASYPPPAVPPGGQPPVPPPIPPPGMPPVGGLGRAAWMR
Chain of CDK13/Cyclin K (Q14004 other isoform, or with tags, fused parts or gaps): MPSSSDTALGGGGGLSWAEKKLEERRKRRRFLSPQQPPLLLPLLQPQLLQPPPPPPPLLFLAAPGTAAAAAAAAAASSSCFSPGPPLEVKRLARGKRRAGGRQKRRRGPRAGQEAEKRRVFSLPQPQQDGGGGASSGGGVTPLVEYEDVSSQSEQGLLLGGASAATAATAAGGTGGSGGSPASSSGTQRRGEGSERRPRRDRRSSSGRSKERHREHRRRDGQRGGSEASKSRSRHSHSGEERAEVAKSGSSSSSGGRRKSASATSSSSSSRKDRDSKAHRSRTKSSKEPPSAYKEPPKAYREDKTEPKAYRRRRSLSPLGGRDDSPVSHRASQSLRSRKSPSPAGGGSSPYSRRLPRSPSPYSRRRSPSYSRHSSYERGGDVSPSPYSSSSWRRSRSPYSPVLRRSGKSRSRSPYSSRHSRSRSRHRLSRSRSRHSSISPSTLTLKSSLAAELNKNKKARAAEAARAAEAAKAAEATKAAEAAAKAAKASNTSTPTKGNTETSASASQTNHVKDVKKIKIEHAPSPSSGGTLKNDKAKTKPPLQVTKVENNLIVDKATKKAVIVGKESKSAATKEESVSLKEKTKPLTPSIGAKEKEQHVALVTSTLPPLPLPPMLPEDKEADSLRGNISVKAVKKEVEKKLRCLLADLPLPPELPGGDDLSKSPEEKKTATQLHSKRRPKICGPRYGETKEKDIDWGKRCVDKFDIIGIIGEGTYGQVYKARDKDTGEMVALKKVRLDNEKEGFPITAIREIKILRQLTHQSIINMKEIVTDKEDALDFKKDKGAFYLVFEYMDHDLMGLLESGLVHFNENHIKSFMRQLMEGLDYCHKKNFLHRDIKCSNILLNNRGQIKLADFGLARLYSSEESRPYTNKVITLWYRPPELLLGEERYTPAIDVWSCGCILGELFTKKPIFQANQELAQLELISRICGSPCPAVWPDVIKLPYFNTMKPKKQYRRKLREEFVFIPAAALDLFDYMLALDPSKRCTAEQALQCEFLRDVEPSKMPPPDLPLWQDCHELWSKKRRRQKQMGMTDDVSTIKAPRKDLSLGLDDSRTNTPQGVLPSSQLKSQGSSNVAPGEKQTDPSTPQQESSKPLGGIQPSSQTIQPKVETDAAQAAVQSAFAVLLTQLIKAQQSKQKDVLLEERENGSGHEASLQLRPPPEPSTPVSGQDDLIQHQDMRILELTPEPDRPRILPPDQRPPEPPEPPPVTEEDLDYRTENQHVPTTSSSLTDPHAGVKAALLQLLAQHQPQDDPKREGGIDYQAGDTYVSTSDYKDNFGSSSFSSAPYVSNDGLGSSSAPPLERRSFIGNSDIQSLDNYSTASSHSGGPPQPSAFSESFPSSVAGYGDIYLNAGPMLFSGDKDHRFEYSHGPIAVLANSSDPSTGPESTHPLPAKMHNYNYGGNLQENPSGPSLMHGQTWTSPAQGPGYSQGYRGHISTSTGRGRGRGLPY
Chain of CDK4/Cyclin D1 (P11802 whole entry): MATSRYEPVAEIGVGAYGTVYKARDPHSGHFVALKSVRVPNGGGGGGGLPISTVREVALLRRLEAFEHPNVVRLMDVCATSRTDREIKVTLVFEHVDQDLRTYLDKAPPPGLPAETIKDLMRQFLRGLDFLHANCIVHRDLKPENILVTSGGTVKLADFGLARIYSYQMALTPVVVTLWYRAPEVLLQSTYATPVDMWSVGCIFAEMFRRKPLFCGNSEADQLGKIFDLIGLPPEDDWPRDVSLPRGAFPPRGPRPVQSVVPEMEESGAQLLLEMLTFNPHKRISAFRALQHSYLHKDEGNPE
Chain of CDK4/Cyclin D1 (P24385 whole entry partner): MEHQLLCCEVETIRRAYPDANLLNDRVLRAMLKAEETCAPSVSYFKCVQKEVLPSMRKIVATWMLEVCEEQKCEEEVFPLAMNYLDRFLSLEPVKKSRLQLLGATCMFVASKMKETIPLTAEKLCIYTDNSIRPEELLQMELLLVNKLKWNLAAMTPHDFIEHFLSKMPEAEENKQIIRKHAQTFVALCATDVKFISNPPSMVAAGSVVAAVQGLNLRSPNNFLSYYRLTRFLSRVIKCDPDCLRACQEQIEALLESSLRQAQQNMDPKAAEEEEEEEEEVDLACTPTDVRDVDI
Chain of CDK18/Cyclin Y (Q07002 whole entry): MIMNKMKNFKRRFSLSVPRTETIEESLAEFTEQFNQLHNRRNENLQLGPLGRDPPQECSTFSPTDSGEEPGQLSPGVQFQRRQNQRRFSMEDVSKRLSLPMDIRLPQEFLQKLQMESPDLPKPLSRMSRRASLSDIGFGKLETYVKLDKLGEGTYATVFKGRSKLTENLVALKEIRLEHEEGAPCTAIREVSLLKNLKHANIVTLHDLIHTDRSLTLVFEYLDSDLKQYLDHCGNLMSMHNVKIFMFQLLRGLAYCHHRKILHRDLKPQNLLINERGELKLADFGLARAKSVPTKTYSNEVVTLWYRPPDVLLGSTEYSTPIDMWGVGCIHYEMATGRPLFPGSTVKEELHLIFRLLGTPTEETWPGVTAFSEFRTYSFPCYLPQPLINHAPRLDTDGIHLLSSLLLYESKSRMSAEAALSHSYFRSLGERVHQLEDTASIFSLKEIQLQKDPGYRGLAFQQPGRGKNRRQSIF
Chain of CDK18/Cyclin Y (Q8ND76 whole entry partner): as the sequence (Q8ND76 whole entry partner) above

- inhibition at 10 µM (CDK5/CDK5R1; average of experiments): 63.7%
- inhibition at 10 µM (CDK5/CDK5R1; independent experiment 1): 36.3%
- inhibition at 10 µM (CDK5/CDK5R1; independent experiment 2): 91%
- inhibition at 10 µM (CDK12/Cyclin K; average of experiments): 1.7%
- inhibition at 10 µM (CDK12/Cyclin K; independent experiment 1): 4.5%
- inhibition at 10 µM (CDK12/Cyclin K; independent experiment 2): -1.1%
- inhibition at 10 µM (CDK11A/Cyclin L2; average of experiments): -4.5%
- inhibition at 10 µM (CDK11A/Cyclin L2; independent experiment 1): -2.4%
- inhibition at 10 µM (CDK11A/Cyclin L2; independent experiment 2): -6.6%
- inhibition at 10 µM (CDK13/Cyclin K; average of experiments): 2.3%
- inhibition at 10 µM (CDK13/Cyclin K; independent experiment 1): 3%
- inhibition at 10 µM (CDK13/Cyclin K; independent experiment 2): 1.7%
- inhibition at 10 µM (CDK20/Cyclin H; independent experiment 1): -3.3%
- inhibition at 10 µM (CDK20/Cyclin H; independent experiment 2): -1.2%
- inhibition at 10 µM (CDK18/Cyclin Y; average of experiments): 5.4%
- inhibition at 10 µM (CDK18/Cyclin Y; independent experiment 1): -4.7%
- inhibition at 10 µM (CDK18/Cyclin Y; independent experiment 2): 15.4%
- inhibition at 10 µM (CDK2/Cyclin E1; average of experiments): 66.9%
- inhibition at 10 µM (CDK2/Cyclin E1; independent experiment 1): 79.7%
- inhibition at 10 µM (CDK2/Cyclin E1; independent experiment 2): 54%
- inhibition at 10 µM (CDK11B/Cyclin L2; average of experiments): 3.9%
- inhibition at 10 µM (CDK11B/Cyclin L2; independent experiment 1): 7.1%
- inhibition at 10 µM (CDK11B/Cyclin L2; independent experiment 2): 0.8%
- inhibition at 10 µM (CDK4/Cyclin D1; average of experiments): -37.2%
- inhibition at 10 µM (CDK4/Cyclin D1; independent experiment 1): 8.3%
- inhibition at 10 µM (CDK4/Cyclin D1; independent experiment 2): -82.7%
- inhibition at 10 µM (CDK10/Cyclin L2; average of experiments): -1.9%
- inhibition at 10 µM (CDK10/Cyclin L2; independent experiment 1): -2.4%
- inhibition at 10 µM (CDK10/Cyclin L2; independent experiment 2): -1.5%
- inhibition at 10 µM (CDK19/Cyclin C; average of experiments): 8%
- inhibition at 10 µM (CDK19/Cyclin C; independent experiment 1): 12.7%
- inhibition at 10 µM (CDK19/Cyclin C; independent experiment 2): 3.4%
- inhibition at 10 µM (CDK6/Cyclin D1; average of experiments): -0.5%
- inhibition at 10 µM (CDK6/Cyclin D1; independent experiment 1): 5.9%
- inhibition at 10 µM (CDK6/Cyclin D1; independent experiment 2): -7%
- inhibition at 10 µM (CDK1/Cyclin E1; average of experiments): 21.2%
- inhibition at 10 µM (CDK1/Cyclin E1; independent experiment 1): 18.1%
- inhibition at 10 µM (CDK1/Cyclin E1; independent experiment 2): 24.3%
- inhibition at 10 µM (CDK17/Cyclin Y; average of experiments): 2.5%
- inhibition at 10 µM (CDK17/Cyclin Y; independent experiment 1): 0.32%
- inhibition at 10 µM (CDK17/Cyclin Y; independent experiment 2): 4.7%
- inhibition at 10 µM (CDK9/Cyclin K; average of experiments): 8.4%
- inhibition at 10 µM (CDK9/Cyclin K; independent experiment 1): -0.3%
- inhibition at 10 µM (CDK9/Cyclin K; independent experiment 2): 17.1%
- inhibition at 10 µM (CDK8/Cyclin C; average of experiments): 1.6%
- inhibition at 10 µM (CDK8/Cyclin C; independent experiment 1): 3.2%
- inhibition at 10 µM (CDK8/Cyclin C; independent experiment 2): -0.0599%
- inhibition at 10 µM (CDK14/Cyclin Y; average of experiments): -0.116%
- inhibition at 10 µM (CDK14/Cyclin Y; independent experiment 1): -3.3%
- inhibition at 10 µM (CDK14/Cyclin Y; independent experiment 2): 3.1%
- inhibition at 10 µM (CDK16/Cyclin Y; independent experiment 1): 11.3%
- inhibition at 10 µM (CDK16/Cyclin Y; independent experiment 2): -5.5%
- inhibition at 10 µM (CDK15/Cyclin Y; average of experiments): 0.0365%
- inhibition at 10 µM (CDK15/Cyclin Y; independent experiment 1): 4.9%
- inhibition at 10 µM (CDK15/Cyclin Y; independent experiment 2): -4.9%
SMILES: CC(C)[C@H](CO)Nc1nc(Nc2ccc(C(=O)O)c(Cl)c2)c2ncn(C(C)C)c2n1 [Purvalanol B]

Reference: publication PMC7265341, “Quantifying CDK inhibitor selectivity in live cells” (Nature Communications, 2020)
